From patent US20070203066A1, “Compositions and methods for inhibiting cellular proliferation” (priority 2005, published 2007)
Like-named read-outs stand apart in the source and are kept apart here. Non-standard residues stand in square brackets, D forms with d. Primed or numbered codes have the meaning given here. No end group written: not given here. Ida = iminodiacetic acid linker, its two carboxyls bind the Lys side-chain amines of two peptides, giving a homodimer; Ida(3) = iminodiacetic acid linker, Lys side-chain amines bound to its two carboxyl groups; Ida(4) = iminodiacetic acid linker (dimerization linker bound to lysine side chain); Dip = N[C@H](C(=O)O)C(c1ccccc1)c1ccccc1; Ahx = NCCCCCC(=O)O

System: HUVECs
Assay type: cell-based
Summary of the method: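 Proliferation read-out: BrdU incorporation after 48-hour culture (37 ° C, 5% CO2) with graded peptide doses. Cells were in EBM with 2% FCS at 5,000 per well, driven by VEGF (5 ng/ml) or bFGF (10 ng/ml), added after ≥12-hour attachment.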

[1] = HUVEC proliferation, bFGF at 10 ng/ml or VEGF at 5 ng/ml, 48 hours, BrdU incorporation, read-out: IC50 on HUVECs

KTKRKRKKQRVKIIF [compound 79]
IC50 [1]: > 30 µM

KRKRKKQRVKIAYEEIFV [compound 61]
IC50 [1]: 10 to 30 µM

276 (XRRRRQHVRIYFK; not fully specified; Xaa = Acylated Histidine; The side chain of Lysine at position 13 is covalently bound to an Ida linker forming a homodimer of residues 1 through 13.) [compound 276]
IC50 [1]: < 10 µM

351 (Ac-ARRRRQRVAIYGK-NH2; not fully specified (residue 13); also: homodimer of residues 1-13 via Ida linker on K13 side chain) [compound 351]
IC50 [1]: > 30 µM

482 (Ac-PRRRRQAVAIKF; not fully specified (residue 11); also: homodimer via Ida linker on Lys11 side chain) [compound 482]
IC50 [1]: < 10 µM

493 (Ac-ARRRNQPVAIKF; not fully specified (residue 11); also: homodimer: Lys11 side chain bound to Ida linker (Boc on Ida N)) [compound 493]
IC50 [1]: > 30 µM

218 (Ac-RARRRQAVAIIF; also: dimer: Phe C-termini joined via Lys linker) [compound 218]
IC50 [1]: < 10 µM

KKQRVKIAYEEIF [compound 70]
IC50 [1]: > 30 µM

KTKRKRKKQRVKIAYEEIFVQAA [compound 45]
IC50 [1]: 10 to 30 µM

KTKRKRKAARVKIAYEEIFVQNM [compound 53]
IC50 [1]: > 30 µM

KTKRKRKKQRVKIAYEEIFVKN [compound 13]
IC50 [1]: < 10 µM

TKRKRKKQRVKIIF [compound 80]
IC50 [1]: > 30 µM

406 (Ac-MRRRRQAVAIYFK; not fully specified (residue 13, C-terminus); also: homodimer via Ida linker on Lys side chains, linker at 13 via Ida, other end not in the chain) [compound 406]
IC50 [1]: < 10 µM

419 (Ac-ARRRRQQVAIYFK; not fully specified (residue 13, C-terminus); also: homodimer of residues 1-13 via Ida linker on K13 side chain) [compound 419]
IC50 [1]: < 10 µM

368 (Ac-ARRRRQRVA[Dip]YFK-NH2; not fully specified (residue 13); printed as [AcARRRRQRVA3,3-diphenylAlaYFK*]; also: homodimer via Ida linker on Lys13 side chain, Boc on Ida amine) [compound 368]
IC50 [1]: < 10 µM

396 (Ac-ARRRRQAVWIYFK; not fully specified (residue 13, C-terminus); also: homodimer of residues 1-13 via Ida linker at Lys13 side chain) [compound 396]
IC50 [1]: < 10 µM

KRKRKKQRVKIAYEEIF [compound 66]
IC50 [1]: 10 to 30 µM

503 (Ac-PRRLRQAVAIYFK; not fully specified (residue 13, C-terminus); also: homodimer via Ida linker on Lys13 side chain) [compound 503]
IC50 [1]: < 10 µM

278 (Ac-RRRRRQHVHIYFK-NH2; not fully specified (residue 13); also: homodimer: Lys13 side chain bound to Ida linker) [compound 278]
IC50 [1]: < 10 µM

329 (Ac-ARRRRQRVAIYFK-NH2; not fully specified (residue 13); also: homodimer via Lys13 side chain, GP3 linker) [compound 329]
IC50 [1]: < 10 µM

397 (Ac-ARRRRQAVYIYFK; not fully specified (residue 13, C-terminus); also: homodimer of residues 1-13 via Ida linker at Lys13 side chain) [compound 397]
IC50 [1]: < 10 µM

KRKKQRVKIIFV [compound 88]
IC50 [1]: > 30 µM

461 (Ac-ARRRK(Ida(3))QAVAIYF; also: homodimer via Ida linker on Lys side chains, linker at 5 via Ida, other end not in the chain) [compound 461]
IC50 [1]: 10 to 30 µM

378 (Ac-ARRRRQRVAIQFK-NH2; not fully specified (residue 13); also: homodimer via Ida linker on Lys13 side chain, Ida amine Boc) [compound 378]
IC50 [1]: < 10 µM

KTKRKRKKQRVAAAYEEIFVQNM [compound 50]
IC50 [1]: > 30 µM

CC[C@H](C)[C@H](NC(=O)[C@H](CCCNC(=N)N)NC(=O)[C@@H](NC(=O)[C@H](Cc1c[nH]cn1)NC(=O)[C@H](CCC(N)=O)NC(=O)[C@H](CCCNC(=N)N)NC(=O)[C@H](CCCNC(=N)N)NC(=O)[C@H](Cc1c[nH]cn1)NC(=O)[C@H](Cc1c[nH]cn1)NC(=O)[C@H](CCCNC(=N)N)NC(C)=O)C(C)C)C(=O)N[C@@H](Cc1ccc(O)cc1)C(=O)N[C@@H](Cc1ccccc1)C(=O)N[C@@H](CCCCNC(=O)CN(CC(=O)NCCCC[C@H](NC(=O)[C@H](Cc1ccccc1)NC(=O)[C@H](Cc1ccc(O)cc1)NC(=O)[C@@H](NC(=O)[C@H](CCCNC(=N)N)NC(=O)[C@@H](NC(=O)[C@H](Cc1c[nH]cn1)NC(=O)[C@H](CCC(N)=O)NC(=O)[C@H](CCCNC(=N)N)NC(=O)[C@H](CCCNC(=N)N)NC(=O)[C@H](Cc1c[nH]cn1)NC(=O)[C@H](Cc1c[nH]cn1)NC(=O)[C@H](CCCNC(=N)N)NC(C)=O)C(C)C)[C@@H](C)CC)C(N)=O)C(=O)CCNC(=O)OC(C)(C)C)C(N)=O [Peptide 333]
IC50 (48 h): < 10 µM

301 (Ac-RRRRRQAVRITITFK-NH2; not fully specified (residue 15); also: homodimer: Lys15 side chain bound to Ida linker) [compound 301]
IC50 [1]: < 10 µM

414 (Ac-YRRRRQAVAIYFK; not fully specified (residue 13, C-terminus); also: homodimer via Ida linker on Lys side chains, linker at 13 via Ida, other end not in the chain) [compound 414]
IC50 [1]: < 10 µM

468 (Ac-ARRIRQAVAIYFK(Ida(3)); not fully specified (C-terminus); also: homodimer via Ida linker on Lys13 side chain) [compound 468]
IC50 [1]: > 30 µM

454 (Ac-SRRRRQAVAIVFK-NH2; not fully specified (residue 13); also: homodimer via Ida linker at K13) [compound 454]
IC50 [1]: < 10 µM

307 (Ac-RRRRRQAVRK(Ida)IFV; also: homodimer via Ida linker on Lys10 side chain) [compound 307]
IC50 [1]: < 10 µM

CC[C@H](C)[C@H](NC(=O)[C@H](C)NC(=O)[C@@H](NC(=O)[C@H](C)NC(=O)[C@H](CCC(N)=O)NC(=O)[C@H](CCCNC(=N)N)NC(=O)[C@H](CCCNC(=N)N)NC(=O)[C@H](CCCNC(=N)N)NC(=O)[C@H](CCCNC(=N)N)NC(=O)[C@H](C)NC(C)=O)C(C)C)C(=O)N[C@@H](Cc1ccc(O)cc1)C(=O)N[C@@H](Cc1ccccc1)C(=O)N[C@@H](CCCCNC(=O)CN(CC(=O)NCCCC[C@H](NC(=O)[C@H](Cc1ccccc1)NC(=O)[C@H](Cc1ccc(O)cc1)NC(=O)[C@@H](NC(=O)[C@H](C)NC(=O)[C@@H](NC(=O)[C@H](C)NC(=O)[C@H](CCC(N)=O)NC(=O)[C@H](CCCNC(=N)N)NC(=O)[C@H](CCCNC(=N)N)NC(=O)[C@H](CCCNC(=N)N)NC(=O)[C@H](CCCNC(=N)N)NC(=O)[C@H](C)NC(C)=O)C(C)C)[C@@H](C)CC)C(N)=O)C(=O)CCNC(=O)OC(C)(C)C)C(N)=O [Peptide 315]
IC50 (48 h): < 10 µM

409 (Ac-QRRRRQAVAIYFK; not fully specified (residue 13, C-terminus); also: homodimer via Ida linker on Lys side chains, linker at 13 via Ida, other end not in the chain) [compound 409]
IC50 [1]: < 10 µM

VKIAYEEIFVQNM [compound 43]
IC50 [1]: > 30 µM

410 (Ac-SRRRRQAVAIYFK; not fully specified (residue 13, C-terminus); also: homodimer via Ida linker on Lys side chains, linker at 13 via Ida, other end not in the chain) [compound 410]
IC50 [1]: < 10 µM

190 (Ac-RRRRRQRVHIIF; also: dimer: C-terminal Phe bound to an amino group of a Lys linker, 2 chains per Lys) [compound 190]
IC50 [1]: < 10 µM

KKQRVKIAYEEIFVKNM [compound 12]
IC50 [1]: < 10 µM

129 (TKRKRKKQRVKI[Ahx][Ahx]IF; also: dimer: C-terminus of Phe16 of each chain bound to one amino group of a Lysine linker) [compound 129]
IC50 [1]: < 10 µM

200 (Ac-RARRRQAVRIIF; also: dimer: C-terminal Phe bound to an amino group of a Lys linker, 2 chains per Lys) [compound 200]
IC50 [1]: < 10 µM

KTKKQRVKIAYEEIFVQNM [compound 57]
IC50 [1]: > 30 µM

300 (Ac-RRRRRQAVRIPIPFK-NH2; not fully specified (residue 15); also: homodimer: Lys15 side chain bound to Ida linker) [compound 300]
IC50 [1]: 10 to 30 µM

475 (Ac-PRRRNQAVAIYFK(Ida(3)); not fully specified (C-terminus); also: homodimer via Ida linker on Lys13 side chain) [compound 475]
IC50 [1]: < 10 µM

348 (Ac-ARRRRQRVAIYHK-NH2; not fully specified (residue 13); also: homodimer of residues 1-13 via Ida linker on Lys13 side chain) [compound 348]
IC50 [1]: > 30 µM

KTKRKRKKQRAKIIFVQNM [compound 113]
IC50 [1]: < 10 µM

444 (Ac-RRRRYQAVAIYFK(Ida(4)); not fully specified (C-terminus); also: homodimer via Ida linker at K13) [compound 444]
IC50 [1]: < 10 µM
